Laboratory results published in PMC5317004 (Scientific Reports, 2017).

System: chimeric α7-GluClβR
Assay: Voltage ramps during current decline: reversal potential, chloride chord conductance, IVM rate constants
Assay type: cell-based, chick nAChR α7 / C. elegans GluClβ
Experimental: Figure 6 Chloride conductance of α7-GluClβRs. Representative whole-cell current traces elicited by: (A) ACh alone and (B) ACh to which IVM was added after the current peak. Recordings were performed at −60 mV with intervening 200-ms-long voltage ramps applied from −80 to +20 mV during the current decline, giving output currents r1–r13. *, time lapse of ~1 sec between protocols’ exchange (see “Supplementary Materials and Methods”). Traces in A and B were recorded from the same cell, with an intermediate 74-sec-long wash. Right panels show superimposition of the output currents. (C,D) Current-voltage (I/V) relations extracted from A and B, respectively (r13 in D overlaps the x-axis). (E) Reversal potentials (Erev) extracted from the voltage-ramps’ output currents of A (black squares) and B (red circles), plotted as a function of time (0 sec, time of r1). (F) Decay of chloride chord conductance plotted as a function of time, in the absence or presence of IVM. The conductance points were calculated at −65 mV based on the voltage-ramps’ output currents shown in A and B. Exponential fits (Eq. 6) are shown. (G,H) Normalized (Norm.) conductance (G), current (I), intracellular Cl^− ion concentration ([Cl]i), and electrochemical driving force (VDF) plotted as a function of time for ACh-dependent responses in the absence (panel G) or presence (panel H) of IVM (relating to responses in A and B, respectively). (I,J) Decay of chloride chord conductance plotted as a function of time in representative cells exposed to different IVM concentrations. (K,L,M) Averaged normalized chloride chord conductance (Norm. G) plotted as a function of time under different IVM concentrations. In each cell, each conductance was normalized to the conductance extracted from r1 of the ACh-alone application. N = 7, 11 and 8 in K, L and M, respectively. Error bars are SEM. (N) 1/τIVM plotted as a function of IVM concentration, using equation 7 for curve fitting by linear regression (r^2 = 0.999). 26 cells were analyzed to obtain the averaged 1/τIVM points. Error bars are SEM.
We then took advantage of the capability of IVM to accelerate the current decline in order to determine the binding affinity of IVM. To this end, the voltage ramps’ output currents obtained in the presence of IVM were subtracted from their counterpart currents obtained in the absence of IVM. Then, we calculated the chloride conductance based on the resulting subtracted currents at each ramp. This chloride conductance is hereafter termed GIVM. In each experimented cell, we fitted exponential curves to the first 5-6 conductance points, where there was no substantial difference between the ∆Erev values in the absence or presence of IVM. These exponential fits for the GIVM points were obtained at various IVM concentrations, and they actually provide the time constant of the IVM-dependent Cl^−-conductance decay (τIVM).
Chord conductance (G) was calculated by using equation 5 as follows: […]
The relationship between the conductance values and time was plotted for each cell, and the time constant of conductance decay was determined by fitting an exponential curve to the data points using equation 6 as follows: […]
To calculate the IVM association (kf) and dissociation (kb) rate constants, a curve was fitted to the 1/τIVM values by a linear regression using equation 7 as follows: where τIVM is the time constant of the IVM-dependent Cl^−-conductance decay, and [IVM] is the concentration of IVM. […]

Compound: CC[C@H](C)[C@H]1O[C@]2(CC[C@@H]1C)C[C@@H]1C[C@@H](C/C=C(\C)[C@@H](O[C@H]3C[C@H](OC)[C@@H](O[C@H]4C[C@H](OC)[C@@H](O)[C@H](C)O4)[C@H](C)O3)[C@@H](C)/C=C/C=C3\CO[C@@H]4[C@H](O)C(C)=C[C@@H](C(=O)O1)[C@]34O)O2 [IVM, Ivermectin]
- IVM-dependent decrease in the chloride conductance (0.5 μM IVM, 740 milliseconds after application, 30 μM ACh): 20 ± 2%
- leftward shift in reversal potential (∆Erev) (30 μM ACh plus 4 μM IVM added after the peak, representative cell): 11 mV
- Kd (IVM applied after activation by ACh, read-out: Kd (kb/kf) for IVM binding to activated receptor): 1400 nM
- Kd (after activation) relative to IC50/Ki (prior to activation) (Kd […] vs 156 nM): nine times higher
- IVM association rate constant (k forward, kf) (slope of 1/τIVM vs IVM concentration, 30 μM ACh, 26 cells): 290800 M^−1⋅s^−1
